Data reported in patent US20050192547A1, “Combinations of antiseptic and antibiotic agents containing medical devices” (priority 2002, published 2005).
Converted amounts (≈) assume the structure as drawn. Read-outs that look alike come from different tables or passages of the source.

Assays:
S. epidermidis [1] = assay: Minimum inhibitory concentration in Trypticase Soy Broth, synergy (fractional inhibitory concentration); assay type: cell-based, Staphylococcus epidermidis
S. epidermidis [2] = assay: microbe, parasite or virus in culture; assay type: cell-based, Staphylococcus epidermidis; conditions: for MIC: Staphylococcus epidermidis
[3] = tetrahydrofuran/methanol solvent systems
[4] = after 10-20 passages, inoculum 10^4 cfu/ml
[5] = after 10 transfers, inoculum 10^6 cfu/ml
[6] = Staphylococcus epidermidis, inoculum of 10^4 cfu/ml, read-out: MIC

CC(=O)O.CC(=O)O.NC(=N\CCCCCC/N=C(N)/N=C(\N)Nc1ccc(Cl)cc1)/N=C(\N)Nc1ccc(Cl)cc1 [Chlorhexidine (CHX), chlorhexidine diacetate]
MIC (S. epidermidis [1]; inoculum of 10^4 cfu/ml): 0.5 mg/L
INCREASE IN MIC (S. epidermidis [2]): 2 fold
MIC AFTER PASSAGE (S. epidermidis [2]): 1.0 mg/L
MIC BEFORE PASSAGE (S. epidermidis [2]): 0.5 mg/L

Oc1cc(Cl)ccc1Oc1ccc(Cl)cc1Cl [Triclosan (T), triclosan]
MIC (S. epidermidis [1]; Staphylococcus epidermidis): 0.35 mg/L
MIC (S. epidermidis [2]; read-out: MIC AFTER PASSAGE): 2.5 mg/L (≈ 8.63 µM)
MIC (S. epidermidis [2]; read-out: MIC BEFORE PASSAGE): 0.35 mg/L (≈ 1.21 µM)
INCREASE IN MIC (S. epidermidis [2]; [4]): 7 fold
INCREASE IN MIC (S. epidermidis [2]; [5]): 7 fold

CN(C)c1ccc(O)c2c1C[C@H]1C[C@H]3[C@H](N(C)C)C(O)=C(C(N)=O)C(=O)[C@@]3(O)C(O)=C1C2=O [Minocycline (M), minocycline]
MIC (S. epidermidis [1]; [6]): 0.078 mg/L
MIC (S. epidermidis [2]; read-out: MIC AFTER PASSAGE): 0.156 mg/L (≈ 0.341 µM)
INCREASE IN MIC (S. epidermidis [2]; [4]): 2 fold
INCREASE IN MIC (S. epidermidis [2]; [5]): 4 fold

CCn1cc(C(=O)O)c(=O)c2cc(F)c(N3CCNCC3)cc21 [Norfloxacin (Nf), norfloxacin]
MIC (S. epidermidis [1]; [6]): 0.05 mg/L
upper limit incorporated owing to low solubility [3]: about 0.5 percent (w/v)
MIC (S. epidermidis [2]; read-out: MIC AFTER PASSAGE): 2 mg/L (≈ 6.26 µM)
INCREASE IN MIC (S. epidermidis [2]; [4]): 40 fold

CO[C@H]1/C=C/O[C@@]2(C)Oc3c(C)c(O)c4c(O)c(c(/C=N/N5CCN(C)CC5)c(O)c4c3C2=O)NC(=O)/C(C)=C\C=C\[C@H](C)[C@H](O)[C@@H](C)[C@@H](O)[C@@H](C)[C@H](OC(C)=O)[C@@H]1C [Rifampin (R), rifampin]
MIC (S. epidermidis [2]; read-out: MIC AFTER PASSAGE): 500 mg/L (≈ 608 µM)
MIC (S. epidermidis [2]; read-out: MIC BEFORE PASSAGE): 0.0195 mg/L (≈ 0.0237 µM)
INCREASE IN MIC (S. epidermidis [2]; [4]): 25,000 fold

polyhexamethylenebiguanide [PHMB]
INCREASE IN MIC (S. epidermidis [2]): 1.0 fold
MIC AFTER PASSAGE (S. epidermidis [2]): 0.31 mg/L
MIC BEFORE PASSAGE (S. epidermidis [2]): 0.31 mg/L

NC[C@H]1O[C@H](O[C@H]2[C@H](O)[C@@H](O[C@H]3O[C@H](CO)[C@@H](O)[C@H](N)[C@H]3O)[C@H](N)C[C@@H]2N)[C@H](N)C[C@@H]1O [Tobramycin (Tb), tobramycin]
MIC (S. epidermidis [2]; read-out: MIC AFTER PASSAGE): 0.5 mg/L (≈ 1.07 µM)
MIC (S. epidermidis [2]; read-out: MIC BEFORE PASSAGE): 0.025 mg/L (≈ 0.0535 µM)
INCREASE IN MIC (S. epidermidis [2]; [4]): 20 fold
